Source: patent publication US12528840B2, “Transcription active complex targeting cancer drug from viral protein sequence” (The Regents of the University of California, priority 2020, dated 2026)

Tested on: BCBL-1 cells
Conditions: MTT, compared to Mut d1-1 control peptide
Text: FIG. 8. Amino acid conservation among different gamma-herpesviral transactivator proteins. […] DE; D substitute to glutamic acid, DS: D substituted for serine. ST; serine substituted for threonine (marked in red).
Amino acid sequence alignment identified homologous protein sequences in other gamma-herpesvirus protein sequence (The Top table in FIG. 8a, also shown in FIG. 2). Based on their alignment, “non-natural” protein sequences were generated by substituting specific amino acids (The peptides are: Wt d1-1, DS 3-1, DE 3-1, and Mut d1-1 (control peptide) from the top to the bottom in the Bottom Table in FIG. 8a). Those four peptides were used in MTT assays in FIG. 8b to examine the effects on cell growth of BCBL-1 […] effusion lymphoma (PEL) cell line. Also tested are three D-amino acid substitutions first two amino acids and c-terminal amino acid (ST d3-1), in comparison with one D-amino acid peptide (N-terminus) (Wt d3-1).

Substance | killing of BCBL-1 cells in vitro
d-Arg-KKRR-Ornithine-RRR-B-alanine-LSSILQGLYQL-d-Asp-d Glu [DE 3-1] | killed BCBL-1 cells in vitro at similar efficacies
d-Arg-KKRR-Ornithine-RRR-B-alanine-LSSILQGLYQL-d-Asp-d Ser [DS 3-1] | killed BCBL-1 cells in vitro at similar efficacies
d-Arg-KKRR-Ornithine-RRR-B-alanine-LSSILQGLYQL-d-Asp-d Thr [Wt d3-1] | killed BCBL-1 cells in vitro at similar efficacies
d-Arg-KKRR-Ornithine-RRR-B-alanine-LSTILQGLYQL-d-Asp-d Thr [ST d3-1] | killed BCBL-1 cells in vitro at similar efficacies
d-Arg-KKRR-Ornithine-RRR-β-alanine-LSSILQGLYQLDT [Wt d1-1] | killed BCBL-1 cells in vitro at similar efficacies
